EC50 data for 15 molecules are collected here from patent US20200131142A1, “FARNESOID X RECEPTOR AGONISTS AND USES THEREOF” (Metacrine, Inc., priority 2017, published 2020).

The experiment deals with T1, hFXR (Homo sapiens, UniProt Q96RI1).
T1 construct: expressed in transfected cells; host or cells: CV-1 cells
T1 sequence (Q96RI1 1-486): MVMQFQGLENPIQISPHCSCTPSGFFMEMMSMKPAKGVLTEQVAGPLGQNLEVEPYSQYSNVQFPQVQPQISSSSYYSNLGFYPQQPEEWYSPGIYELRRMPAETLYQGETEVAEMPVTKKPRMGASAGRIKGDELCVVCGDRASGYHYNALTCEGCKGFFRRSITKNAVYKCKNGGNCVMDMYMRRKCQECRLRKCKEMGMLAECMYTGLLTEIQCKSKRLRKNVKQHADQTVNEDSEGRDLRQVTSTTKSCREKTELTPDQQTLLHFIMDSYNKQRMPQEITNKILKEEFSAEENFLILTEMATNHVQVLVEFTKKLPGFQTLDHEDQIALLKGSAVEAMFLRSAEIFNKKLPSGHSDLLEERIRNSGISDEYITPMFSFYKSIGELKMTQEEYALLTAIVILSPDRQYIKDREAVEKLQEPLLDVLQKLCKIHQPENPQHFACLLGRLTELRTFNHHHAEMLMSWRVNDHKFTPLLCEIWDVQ
T1 sequence (P19793 1-462 partner): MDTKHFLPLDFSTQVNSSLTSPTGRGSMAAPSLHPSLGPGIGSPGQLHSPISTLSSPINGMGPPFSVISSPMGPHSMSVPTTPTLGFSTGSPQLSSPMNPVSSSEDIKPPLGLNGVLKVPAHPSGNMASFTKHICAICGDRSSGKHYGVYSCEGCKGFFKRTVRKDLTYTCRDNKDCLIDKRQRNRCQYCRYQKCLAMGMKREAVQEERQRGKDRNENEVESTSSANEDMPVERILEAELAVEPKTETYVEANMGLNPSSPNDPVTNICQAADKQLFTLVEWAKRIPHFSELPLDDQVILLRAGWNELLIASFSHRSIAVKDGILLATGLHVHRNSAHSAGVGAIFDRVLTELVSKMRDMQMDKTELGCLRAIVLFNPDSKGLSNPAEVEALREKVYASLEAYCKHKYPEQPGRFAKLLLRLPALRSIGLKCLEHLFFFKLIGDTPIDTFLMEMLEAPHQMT
The experiment in a line: In Vitro FXR Assay (TK): hFXR/hRXR TK-ECRE-luc reporter in transfected CV-1 cells. To be noted: 18 hrs incubation, luminescence, compounds with maximum efficacy <25% of the Fexarmine control classified as '+'. Type of experiment: cell-based. A digest of the protocol:
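First, CV-1 cells were grown overnight in stripped-serum DMEM, then transfected for 18 h with expression plasmids for human FXR and RXR plus a TK-ECRE luciferase reporter and YFP. Next, serially diluted compounds were applied for 18 h, and lysates were read by luminescence.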

Structures are written as SMILES.

In general, EC50 refers to the concentration giving half of the maximal effect. Consider `CCO[C@H]1CC[C@H](C(=O)N(C[C@H]2CC[C@H](c3ccc(OC)c(C)c3)CC2)c2cccc(-c3cnc(OC)s3)c2)CC1` [Compound 4, trans-4-Ethoxy-N-((trans-4-(4-methoxy-3-methylphenyl)cyclohexyl)methyl)-N-(3-(2-methoxythiazol-5-yl)phenyl)cyclohexanecarboxamide], for which the EC50 lay in the range of 250 to 1000 nM.

Turning to `COc1ncc(-c2cccc(N(C[C@H]3CC[C@H](c4ccc(OC)c(C)c4)CC3)C(=O)[C@H]3CC[C@H](OC)CC3)c2)s1` [Compound 9.33, trans-4-Methoxy-N-((trans-4-(4-methoxy-3-methylphenyl)cyclohexyl)methyl)-N-(3-(2-methoxythiazol-5-yl)phenyl)cyclohexanecarboxamide], the EC50 was at most 250 nM.

Consider `COc1ccc([C@H]2CC[C@H](CN(c3cccc(-c4cnc(C(C)(C)C)s4)c3)C(=O)[C@H]3CC[C@H](O)CC3)CC2)cc1C` [Compound 7.07, trans-N-(3-(2-(tert-Butyl)thiazol-5-yl)phenyl)-4-hydroxy-N-((trans-4-(4-methoxy-3-methylphenyl)cyclohexyl)methyl) cyclohexanecarboxamide], for which the EC50 was at most 250 nM.

`COc1ccc([C@H]2CC[C@H](CN(c3cccc(-c4cnc(O)s4)c3)C(=O)[C@H]3CC[C@H](O)CC3)CC2)cc1C` [Compound 3, trans-4-Hydroxy-N-(3-(2-hydroxythiazol-5-yl)phenyl)-N-((trans-4-(4-methoxy-3-methylphenyl)cyclohexyl)methyl) cyclohexanecarboxamide]: the EC50 was in the range of 250 to 1000 nM.

`Cc1cc([C@H]2CC[C@H](CN(c3cccc(-c4cnc(C5CC5)s4)c3)C(=O)[C@H]3CC[C@H](O)CC3)CC2)ccc1N(C)S(C)(=O)=O` [Compound 9.15, trans-N-(3-(2-Cyclopropylthiazol-5-yl)phenyl)-4-hydroxy-N-((trans-4-(3-methyl-4-(N-methylmethylsulfonamido)phenyl)cyclohexyl)methyl)cyclohexanecarboxamide] returned an EC50 of 250 to 1000 nM.

`COc1ncc(-c2cccc(N(C[C@H]3CC[C@H](c4ccc(OC)c(C)c4)CC3)C(=O)[C@H]3CC[C@H](O)CC3)c2)s1` [Compound 1, trans-4-Hydroxy-N-((trans-4-(4-methoxy-3-methylphenyl)cyclohexyl)methyl)-N-(3-(2-methoxythiazol-5-yl)phenyl)cyclohexanecarboxamide] gave an EC50 of at most 250 nM.

As to `COc1ccc([C@H]2CC[C@H](CN(c3cccc(-c4cnc(C(=O)O)s4)c3)C(=O)[C@H]3CC[C@H](O)CC3)CC2)cc1C` [Compound 7.28, 5-(3-(trans-4-Hydroxy-N-((trans-4-(4-methoxy-3-methylphenyl)cyclohexyl)methyl)cyclohexanecarboxamido)phenyl)thiazole-2-carboxylic acid], the EC50 was at least 1000 nM.

In the case of `COc1ncc(-c2cccc(N(C[C@H]3CC[C@H](c4ccc(OC)c(C)n4)CC3)C(=O)[C@H]3CC[C@H](O)CC3)c2)s1` [Compound 9.02, trans-4-Hydroxy-N-((trans-4-(5-methoxy-6-methylpyridin-2-yl)cyclohexyl)methyl)-N-(3-(2-methoxythiazol-5-yl)phenyl)cyclohexanecarboxamide], the EC50 was at most 250 nM.

Molecule `COc1ccc([C@H]2CC[C@H](CN(c3cccc(-c4cnc(N5CCCC5)s4)c3)C(=O)[C@H]3CC[C@H](O)CC3)CC2)cc1C` [Compound 6, trans-4-Hydroxy-N-((trans-4-(4-methoxy-3-methylphenyl)cyclohexyl)methyl)-N-(3-(2-(pyrrolidin-1-yl)thiazol-5-yl)phenyl)cyclohexanecarboxamide] returned an EC50 of at most 250 nM.

For `COc1ccc(C23CCC(CN(c4cccc(C#Cc5nccs5)c4)C(=O)[C@H]4CC[C@H](O)CC4)(CC2)CC3)cc1C` [Compound 8.04, trans-4-Hydroxy-N-((4-(4-methoxy-3-methylphenyl)bicyclo[2.2.2]octan-1-yl)methyl)-N-(3-(thiazol-2-ylethynyl)phenyl)cyclohexanecarboxamide], the concentration giving a half-maximal response (EC50) is at most 250 nM.

Regarding `COc1ccc([C@H]2CC[C@H](CN(c3cccc(-c4ncc(C)s4)c3)C(=O)[C@H]3CC[C@H](O)CC3)CC2)cc1C` [Compound 7.03, trans-4-Hydroxy-N-((trans-4-(4-methoxy-3-metthylphenyl)cyclohexyl)methyl)-N-(3-(5-methylthiazol-2-yl)phenyl)cyclohexanecarboxamide], the EC50 is at least 1000 nM.

As for `COc1ccc([C@H]2CC[C@H](CN(c3cccc(-c4cnc(C5CC5)s4)c3)C(=O)[C@H]3CC[C@H](N(C)C)CC3)CC2)cc1C` [Compound 13, trans-N-(3-(2-Cyclopropylthiazol-5-yl)phenyl)-4-(dimethylamino)-N-((trans-4-(4-methoxy-3-methylphenyl)cyclohexyl)methyl) cyclohexanecarboxamide], the EC50 is at least 1000 nM.

As to `COc1ccc([C@H]2CC[C@H](CN(c3cc(-c4cnc(C(C)C)s4)ccn3)C(=O)[C@H]3CC[C@H](O)CC3)CC2)nc1C` [Compound 9.29, trans-4-Hydroxy-N-(4-(2-isopropylthiazol-5-yl)pyridin-2-yl)-N-((trans-4-(5-methoxy-6-methylpyridin-2-yl)cyclohexyl)methyl)cyclohexanecarboxamide], the EC50 is at most 250 nM.

With `COc1ccc([C@H]2CC[C@H](CN(c3cccc(-c4cnc(N5CCOCC5)s4)c3)C(=O)[C@H]3CC[C@H](O)CC3)CC2)cc1C` [Compound 7.15, trans-4-Hydroxy-N-((trans-4-(4-methoxy-3-methylphenyl)cyclohexyl)methyl)-N-(3-(2-morpholinothiazol-5-yl)phenyl)cyclohexanecarboxamide], the EC50 is at most 250 nM.

On to `COc1ccc([C@H]2CC[C@H](CN(c3cccc(-c4cnc(C5CCCCC5)s4)c3)C(=O)[C@H]3CC[C@H](O)CC3)CC2)cc1C` [Compound 7.09, trans-N-(3-(2-Cyclohexylthiazol-5-yl)phenyl)-4-hydroxy-N-((trans-4-(4-methoxy-3-methylphenyl)cyclohexyl)methyl) cyclohexanecarboxamide], for which the EC50 lay in the range of 250 to 1000 nM.
